Reference: patent US20160128951A1, “PHARMACEUTICAL COMPOSITIONS OF FINGOLIMOD” (AIZANT DRUG RESEARCH SOLUTIONS PVT LTD, priority 2013, published 2016)

Assay: Stability study (impurities) at 40° C./75% RH for one week
Type: physicochemical
Procedure: Stability study was conducted for active ingredient, compositions of the present invention and comparative composition. The study was conducted at 40° C./75% RH for one week.

[1] = After one week at 40° C./75% RH, Sample (API)

Impurity 1 [1]: 0.05 % w/w | Total Impurities [1]: 0.05 % w/w | Impurity 1 (Initial, Sample): 0.05 % w/w | Total Impurities (Initial, Sample): 0.05 % w/w
SMILES: CCCCCCCCc1ccc(CCC(N)(CO)CO)cc1.Cl [API, 2-amino-2-[2-(4-octylphenyl)ethyl]-propane-1,3-diol]
